The values below come from patent EP4778920A1, “INDAZOLONE COMPOUND, PREPARATION METHOD THEREFOR, PHARMACEUTICAL COMPOSITION, AND USE” (Shanghai Institute of Materia Medica, Chinese Academy of …, priority 2023, dated 2025).

Read-outs that look alike come from different tables or passages of the source. Some results are limits rather than exact numbers.

Holding throughout (type): cell-based
One assay has as its system Mino cells. Nature of the assay: Mino cell proliferation inhibition (MTS assay). The conditions noted are these: Homo sapiens, 72 h, 3 days incubation, read-out: Mino (IC50, Inhibitory Activity of Compounds on Mino Cell Proliferation). As to the method:
The cell concentration was diluted according to a 3-day incubation period, and 90 µL of cell suspension was added to each well of a 96-well plate, resulting in 8,000 cells per well. […] The test compounds were prepared from a 10 mM stock solution and serially diluted in a five-fold gradient. Similarly, 10 µL of the diluted compound solution was added to each compound-treated well (final DMSO concentration 0.2%).
The cells were incubated in a 37 °C, 5% CO2 incubator for 3 days. After incubation, the reaction solution was prepared according to the MTS assay kit instructions (Promega, G5430), and 20 µL was added to each well. The plate was further incubated at 37 °C with 5% CO2 for 3-4 hours. The absorbance at 490 nm was measured using a microplate reader, and the absorbance at 690 nm was used as the background value. The final raw data were calculated as OD490 - OD690. […] The IC50 values for cell proliferation inhibition were determined using GraphPad Prism 5.0. Each experiment was repeated three times, and three parallel replicates were performed in each experiment to calculate the mean value and standard deviation.
Table 2. Inhibitory Activity of Compounds on Mino Cell Proliferation

The subject of the next assay is MM.1S cells. Briefly: MM.1S cell proliferation inhibition (MTS assay). Conditions: Homo sapiens, MM1.S, 168 h, 7 days incubation, read-out: MM1.S (IC50, Inhibitory Activity of Compounds on MM.1S Cell Proliferation). The protocol: The cell concentration was diluted according to a 7-day incubation period, and 180 µL of cell suspension was added to each well of a 96-well plate, with 20,000 cells per well. […] The test compounds were prepared from a 10 mM stock solution and serially diluted in a 5-fold gradient, and 20 µL of the diluted solution was added to each compound-treated well (final DMSO concentration also 0.2%). The cells were incubated in a 37 °C, 5% CO2 incubator for 7 days. After incubation, the reaction solution was prepared according to the MTS assay kit instructions (Promega, G5430), and 20 µL was added to each well. The plate was incubated at 37 °C with 5% CO2 for 3-4 hours. The absorbance at 490 nm was measured using a microplate reader, and the absorbance at 690 nm was used as the background value. […] The IC50 values for cell proliferation inhibition were determined using GraphPad Prism 5.0. Each experiment was repeated three times, and three parallel replicates were performed in each experiment to calculate the mean value and standard deviation.
Inhibitory Activity of Compounds on MM.1S Cell Proliferation
Background: Tetrazolium dyes change colour on reduction, which living cells bring about.

A further assay concerns MV-4-11 cells. Nature of the assay: MV-4-11 cell proliferation inhibition (MTS assay). Conditions: Homo sapiens. As to the method:
MV-4-11 cells were cultured in IMDM medium supplemented with 10% fetal bovine serum and collected. The cell concentration was diluted according to a 7-day incubation period, and 180 µL of cell suspension was added to each well of a 96-well plate, resulting in 2,000 cells per well. […] The test compounds were prepared from a 10 mM stock solution and serially diluted in a five-fold gradient, and 20 µL of the diluted compound solution was added to each compound-treated well (final DMSO concentration 0.2%). The cells were incubated in a 37 °C, 5% CO2 incubator for 7 days. After incubation, the reaction solution was prepared according to the MTS assay kit instructions (Promega, G5430), and 20 µL was added to each well. The plate was further incubated at 37 °C with 5% CO2 for 3-4 hours. The absorbance at 490 nm was measured using a microplate reader, and the absorbance at 690 nm was used as the background value. The final raw data were calculated as OD490 - OD690. […] The IC50 values for cell proliferation inhibition were determined using GraphPad Prism 5.0. Each experiment was repeated three times, and three parallel replicates were performed in each experiment to calculate the mean value and standard deviation.
Table 3. Inhibitory Activity of Compounds on MV-4-11 Cell Proliferation

The mark [1] stands for this setting: MV4-11, 168 h, 7 days incubation, MTS, read-out: MV-411 (IC50, Inhibitory Activity of Compounds on MV-4-11 Cell Proliferation).
The mark [2] stands for this setting: MV4-11, reference compounds, read-out: cell growth inhibitory activity (IC50).

Regarding `O=C1CCC(n2[nH]c3cc(C(=O)N[C@@H]4CCOc5ccc(Cl)cc54)ccc3c2=O)C(=O)N1` (stereo partly drawn) [Compound D41, N-((R)-6-chlorochroman-4-yl)-2-(2,6-dioxopiperidin-3-yl)-3-oxo-2,3-dihydro-1H-indazole-6-carboxamide], the IC50 in the assay with Mino cells is more than 10 µM; in the assay on MM.1S cells, more than 10 µM; in the assay with MV-4-11 cells (setting [1]), more than 20 µM.
As for `O=C1CCC(n2[nH]c3c(OCc4ccc(CN5CCN(c6ccc(Cl)cc6Cl)CC5)cc4)cc(F)cc3c2=O)C(=O)N1` (centres unmarked) [Compound D16, 3-(7-((4-((4-(2,4-dichlorophenyl)piperazin-1-yl)methyl)benzyl)oxy)-5-fluoro-3-oxo-1,3-dihydro-2H-indazol-2-yl)piperidine-2,6-dione], the IC50 in the assay on Mino cells, in the assay on MM.1S cells and with MV-4-11 cells (setting [1]) was less than 0.2 µM throughout.
Turning to `C[C@@H](NC(=O)c1ccc2c(=O)n(C3CCC(=O)NC3=O)[nH]c2c1)c1ccccc1` (stereo partly drawn) [Compound D32, 2-(2,6-dioxopiperidin-3-yl)-3-oxo-N-((R)-1-phenylethyl)-2,3-dihydro-1H-indazole-6-carboxamide], the figures for the IC50 with Mino cells, in the assay on MM.1S cells and with MV-4-11 cells (setting [1]) were more than 10 µM, more than 10 µM and more than 20 µM, respectively.
Consider `O=C1CCC(n2[nH]c3c(OCc4ccc(CN5CC(N6CCOCC6)C5)cc4)cccc3c2=O)C(=O)N1` (centres unmarked) [Compound D13, 3-(7-((4-((3-morpholinoazetidin-1-yl)methyl)benzyl)oxy)-3-oxo-1,3-dihydro-2H-indazol-2-yl)piperidine-2,6-dione], for which the values for the IC50 in the assay with Mino cells, in the assay on MM.1S cells and in the assay on MV-4-11 cells (setting [1]) were 1 to 10 µM, less than 0.2 µM and 0.2 to 1 µM, respectively.
As to `C[C@H](NC(=O)c1ccc2c(=O)n(C3CCC(=O)NC3=O)[nH]c2c1)c1ccc(F)cc1F` (stereo partly drawn) [Compound D38, N-((S)-1-(2,4-difluorophenyl)ethyl)-2-(2,6-dioxopiperidin-3-yl)-3-oxo-2,3-dihydro-1H-indazole-6-carboxamide], the IC50 in the assay on Mino cells is more than 10 µM; in the assay on MM.1S cells it was more than 10 µM; in the assay on MV-4-11 cells (setting [1]), more than 20 µM.
Take `O=C1CCC(n2[nH]c3cc(C(=O)NCc4ccc(Cl)cc4)ccc3c2=O)C(=O)N1` (centres unmarked) [Compound D29, N-(4-chlorobenzyl)-2-(2,6-dioxopiperidin-3-yl)-3-oxo-2,3-dihydro-1H-indazole-6-carboxamide]: the figures for the IC50 with Mino cells, with MM.1S cells and in the assay on MV-4-11 cells (setting [1]) were more than 10 µM, more than 10 µM and more than 20 µM, respectively.
As to `Cc1ccc(CNC(=O)c2ccc3c(=O)n(C4CCC(=O)NC4=O)[nH]c3c2)cc1` (centres unmarked) [Compound D36, 2-(2,6-dioxopiperidin-3-yl)-N-(4-methylbenzyl)-3-oxo-2,3-dihydro-1H-indazole-6-carboxamide], the IC50 is more than 10 µM with Mino cells, more than 10 µM in the assay on MM.1S cells and more than 20 µM in the assay with MV-4-11 cells (setting [1]).
For the compound `Cc1cccc2c1OCC[C@H]2NC(=O)c1ccc2c(=O)n(C3CCC(=O)NC3=O)[nH]c2c1` (stereo partly drawn) [Compound D42, 2-(2,6-dioxopiperidin-3-yl)-N-((R)-8-methylchroman-4-yl)-3-oxo-2,3-dihydro-1H-indazole-6-carboxamide], the IC50 was more than 10 µM in the assay on Mino cells, more than 10 µM in the assay with MM.1S cells and more than 20 µM with MV-4-11 cells (setting [1]).
Consider `O=C1CCC(n2[nH]c3cc(C(=O)N[C@H](c4ccccc4)C(F)(F)F)ccc3c2=O)C(=O)N1` (stereo partly drawn) [Compound D37, 2-(2,6-dioxopiperidin-3-yl)-3-oxo-N-((R)-2,2,2-trifluoro-1-phenylethyl)-2,3-dihydro-1H-indazole-6-carboxamide], for which the results for the IC50 with Mino cells, in the assay with MM.1S cells and in the assay with MV-4-11 cells (setting [1]) were more than 10 µM, more than 10 µM and more than 20 µM, respectively.
In the case of `O=C1CC[C@H](n2[nH]c3c(OCc4cnc(-c5ccc(Cl)cc5)o4)cccc3c2=O)C(=O)N1` [Compound D27, (S)-3-(7-((2-(4-chlorophenyl)oxazol-5-yl)methoxy)-3-oxo-1,3-dihydro-2H-indazol-2-yl)piperidine-2,6-dione], the figures for the IC50 in the assay on Mino cells, in the assay on MM.1S cells and in the assay on MV-4-11 cells (setting [1]) were more than 10 µM, 1 to 10 µM and more than 20 µM, respectively.
`O=C1CCC(n2[nH]c3c(OCc4ccc(CN5CC(N6CCOCC6)C5)cc4)cc(F)cc3c2=O)C(=O)N1` (centres unmarked) [Compound D20, 3-(5-Fluoro-7-((4-((3-morpholinoazetidin-1-yl)methyl)benzyl)oxy)-3-oxo-1,3-dihydro-2H-indazol-2-yl)piperidine-2,6-dione]: the IC50 in the assay with Mino cells was 0.2 to 1 µM; with MM.1S cells it was less than 0.2 µM; in the assay on MV-4-11 cells (setting [1]), 0.2 to 1 µM.
Take `Cc1ccc([C@H](C)NC(=O)c2ccc3c(=O)n(C4CCC(=O)NC4=O)[nH]c3c2)cc1` (some centres unmarked) [Compound D31]: the IC50 is more than 10 µM in the assay on Mino cells, more than 10 µM with MM.1S cells and more than 20 µM in the assay with MV-4-11 cells (setting [1]).
With `C[C@H](NC(=O)c1ccc2c(=O)n(C3CCC(=O)NC3=O)[nH]c2c1)c1ccc(Cl)cc1` (stereo partly drawn) [Compound D30, N-((S)-1-(4-chlorophenyl)ethyl)-2-(2,6-dioxopiperidin-3-yl)-3-oxo-2,3-dihydro-1H-indazole-6-carboxamide], the values for the IC50 in the assay on Mino cells, in the assay with MM.1S cells and in the assay on MV-4-11 cells (setting [1]) were 1 to 10 µM, more than 10 µM and 1 to 20 µM, respectively.
For `O=C1CCC(n2[nH]c3c(OCc4ccc(CN5CCN(c6ccc(Cl)cc6F)CC5)cc4)cc(F)cc3c2=O)C(=O)N1` (centres unmarked) [Compound D21, 3-(7-((4-((4-(4-chloro-2-fluorophenyl)piperazin-1-yl)methyl)benzyl)oxy)-5-fluoro-3-oxo-1,3-dihydro-2H-indazol-2-yl)piperidine-2,6-dione], the IC50 with Mino cells is 0.2 to 1 µM; in the assay on MM.1S cells, less than 0.2 µM; in the assay on MV-4-11 cells (setting [1]), less than 0.2 µM.
Take `O=C1CCC(n2[nH]c3c(OCc4ccc(CN5CCN(c6ccc(C(F)(F)F)cc6)CC5)cc4)cc(F)cc3c2=O)C(=O)N1` (centres unmarked) [Compound D17, 3-(5-Fluoro-3-oxo-7-((4-((4-(4-(trifluoromethyl)phenyl)piperazin-1-yl)methyl)benzyl)oxy)-1,3-dihydro-2H-indazol-2-yl)piperidine-2,6-dione]: the IC50 in the assay on Mino cells, in the assay on MM.1S cells and in the assay with MV-4-11 cells (setting [1]) was less than 0.2 µM in each case.
With `C[C@H](NC(=O)c1ccc2c(=O)n(C3CCC(=O)NC3=O)[nH]c2c1)c1ccccc1` (stereo partly drawn) [Compound D33, 2-(2,6-dioxopiperidin-3-yl)-3-oxo-N-((S)-1-phenylethyl)-2,3-dihydro-1H-indazole-6-carboxamide], the results for the IC50 in the assay with Mino cells, in the assay with MM.1S cells and with MV-4-11 cells (setting [1]) were more than 10 µM, more than 10 µM and more than 20 µM, respectively.
Take `O=C1CCC(n2[nH]c3c(OCc4ccc(CN5CCN(c6ccc(C(F)(F)F)cc6)CC5)cc4)cccc3c2=O)C(=O)N1` (centres unmarked) [Compound D11, 3-(3-Oxo-7-((4-((4-(4-(trifluoromethyl)phenyl)piperazin-1-yl)methyl)benzyl)oxy)-1,3-dihydro-2H-indazol-2-yl)piperidine-2,6-dione]: the figures for the IC50 in the assay with Mino cells, with MM.1S cells and with MV-4-11 cells (setting [1]) were 0.2 to 1 µM, less than 0.2 µM and less than 0.2 µM, respectively.
For the compound `Cn1c2c(OCc3ccc(CN4CCN(c5ccc(C#N)cc5F)CC4)cc3)cccc2c(=O)n1C1CCC(=O)NC1=O` (centres unmarked) [Compound D24, 4-(4-(4-(((2-(2,6-dioxopiperidin-3-yl)-1-methyl-3-oxo-2,3-dihydro-1H-indazol-7-yl)oxy)methyl)benzyl)piperazin-1-yl)-3-fluorobenzonitrile], the IC50 with Mino cells is less than 0.2 µM; in the assay with MM.1S cells, less than 0.2 µM; with MV-4-11 cells (setting [1]), more than 20 µM.
As to `Nc1cccc2c1C(=O)N(C1CCC(=O)NC1=O)C2=O` (centres unmarked) [pomalidomide, reference compound], in the assay with MV-4-11 cells (setting [2]), the IC50 was more than 20 µM.
`O=C1CC[C@H](N2Cc3c(OCc4ccc(CN5CCOCC5)cc4)cccc3C2=O)C(=O)N1` [CC-220, reference compound]: in the assay on MV-4-11 cells (setting [2]), the IC50 is more than 20 µM.
